Data from US20260008775A1, “AZOLE MODULATORS OF CHOLESTEROL BIOSYNTHESIS AND THEIR USE FOR PROMOTING REMYELINATION” (GENENTECH, INC., priority 2022, published 2026).
pEC50, pKi: −log10 of the molar value.

Columns and labels:
[1] = system: zymostenol accumulation (EBP) in EpiSC-derived OPCs; experiment: GC/MS-based sterol profiling, zymostenol accumulation in EpiSC-derived OPCs; format: cell-based, mouse; settings: Mus musculus, 24 h, EpiSC-derived OPCs, 24 hr, 8 doses from 0.15 nM to 333 nM; read-out: Mouse Zymostenol GCMS EC50
Experimental: (§1) To assess effects of treatments on OPCs, all treatments were assayed in two or more independent platings of epiblast stem cell-derived OPCs (EpiSC). EpiSC-derived OPCs were obtained using in vitro differentiation protocols and culture conditions described previously (Najm et al, 2011, Nature Methods). OPCs were expanded and frozen down in aliquots. OPCs were thawed into growth conditions for at least one passage before use in further assays.
Sterols were monitored using a modified Folch wash protocol (Hubler et al, 2018, Nature). EpiSC-derived OPCs were plated at 100,000 cells per well in PO- and laminin-coated 96-well plates in N2B27 media without growth factors. After 24 hours, cells were rinsed with saline and plates were frozen. Cholesterol-d7 standard was then added to each well before drying under nitrogen stream and derivatization with 55 μl of bis(trimethylsilyl) trifluoroacetamide. After derivatization, 2 μl were analyzed by gas chromatography/mass spectrometry using an Agilent 5973 Network Mass Selective Detector equipped with a 6890 gas chromatograph system and a HP-5MS capillary column (30 m×0.25 mm×[…]). Samples were analyzed in full scan mode using electron impact ionization; ion fragment peaks were integrated to calculate sterol abundance, and quantitation was relative to cholesterol-d7. The following ion fragments were used to quantitate each metabolite: cholesterol-d7 (465), FF-Mas (482), cholesterol (368), zymostenol (458), zymosterol (456), Desmosterol (456, 343), 7-dehydrocholesterol (456, 325), lanosterol (393), lathosterol (458), 14-dehydrozymostenol (456, 351). […] All standards were obtained from Avanti Polar Lipids unless otherwise indicated. Calibration curves were generated by injecting varying concentrations of sterol standards and maintaining a fixed amount of cholesterol-D7. For normalized zymostenol accumulation results, the total amount of zymostenol measured after drug treatment was divided by the total amount of zymostenol accumulated after 24 hr treatment with 100 nM positive control reference.

[2] = system: EpiSC-derived OPCs; experiment: In vitro phenotypic screening of OPCs, MBP high-content imaging (percentage of oligodendrocytes); format: cell-based, mouse; settings: for pEC50: Mus musculus, 72 h, 3 days, MBP stain, dose-response 0.5 nM to 1000 nM, read-out: OPC EC50
Experimental: as §1
EpiSC-derived OPCs were grown and expanded in poly-L-ornithine (PO) and laminin-coated flasks in N2B27 media (DMEM/F12 (Gibco), N2-MAX (R&D Systems), B-27 (ThermoFisher), and GlutaMax (Gibco)) supplemented with FGF2 (10 μg/mL, R&D systems, 233-FB-025) and PDGF-AA (10 μg/mL, R&D systems, 233-AA-050) before harvesting for experiments. The cells were seeded onto poly-L-ornithine or poly-D-lysine coated CellCarrier Ultra plates (PerkinElmer) coated with laminin (Sigma, L2020) at a density of 150,000/cm^2 in N2B27 media without growth factors. For dose-response testing, a 1000× compound stock in dimethyl sulphoxide (DMSO) was added to assay plates, resulting in 8-point dose curves with final concentrations between 1000 nM and 0.5 nM. Positive controls and DMSO vehicle controls were included in each assay plate. Cells were incubated under standard conditions (37° C., 5% CO2) for 3 days and fixed with 4% paraformaldehyde (PFA) in phosphate buffered saline (PBS) for 20 min. Fixed plates were washed with PBS, permeabilized with 0.1% Triton X-100, and blocked with 10% donkey serum (v/v) in PBS for 40 min. Then, cells were labelled with MBP antibodies (Abcam, ab7349; 1:200) for 2 h at room temperature, washed with PBS, and stained with Alexa Fluor conjugated secondary antibodies (1:500) for 45 min. Nuclei were visualized by DAPI staining (Sigma; […]), followed by further PBS washes.
Cells and cell culture plates were imaged on the Operetta High Content Imaging and Analysis system (PerkinElmer). Analysis (PerkinElmer Harmony and Columbus software) began by identifying intact nuclei stained by DAPI. The peri-nuclear region of each cell was then cross-referenced with the mature myelin protein (MBP) stain to identify oligodendrocyte nuclei, and from this the percentage of oligodendrocytes was calculated. EC50 values were calculated using The Levenberg-Marquardt algorithm to fit a Hill equation to dose-response data (0.5 nM to 1000 nM).

[3] = biological target: human emopamil binding protein and human 7-dehydrocholesterol reductase (hEBP-DHCR7) (Homo sapiens (Human), UniProt Q15125); experiment: hEBP-DHCR7 radioligand binding assay (filter binding, membranes of co-expressing HEK293 cells); settings: competition with [3H] radioligand, 8 doses 0.06 to 5000 nM, Ki calculated from IC50
Experimental: Membrane Preparation: human emopamil binding protein and human 7-dehydrocholesterol reductase co-expressing cells were generated by transient transfecting host human embryonic kidney (HEK) 293 cells with 2 DNA constructs containing each protein's coding sequence. Cells were suspension cultured at 37° C. with 5% CO2 in […] 293 Expression Medium (Thermofisher). Whole cell membrane was prepared by harvesting the cell pellet, adding cold membrane buffer (50 mM Tris, pH7.5, 1× Roche COMPLETE EDTA-free protease inhibitor cocktail) 10 times volume of the cell pellets weight, lysing cell pellet on ice by using Dounce homogenizer, spinning at 200 g 4° C. for 15 min, collecting supernatant and spinning again at 25000 g 4° C. for 50 min, transferring pellet to Dounce homogenizer, re-suspending pellet by homogenizing in membrane buffer on ice to reach ˜25 mg/mL, then keeping whole cell membrane aliquots at −80° C.
Compounds were prepared in a 96-well U bottom plate (Corning Cat #7007) using an Echo550 machine and 10 mM compound DMSO stock solution, followed by an 8-dose 5-fold serial dilutions protocol with final testing compound concentration ranging from 0.06 to 5000 nM, with DMSO back fill to 100 nL/well and n=2. […] The UniFilter-96 GF/B plates (PerkinElmer Cat #6005177) were pre-treated by adding 50 μl/well of 0.3% (v/v) Polyethylenimine (PEI) (branched, Sigma Cat #408727) to UniFilter-96 GF/B plates. The plates were sealed and incubated at 4° C. for 3 hrs. Then, the plates were washed with ice-cold assay buffer 3 times. The radioligand binding assay was prepared by adding assay buffer diluted hEBP-DHCR7 membrane at 66.7 µg/ml×150 μl/well into the 96-well compound plate to reach 10 μg membrane per well. Then, the assay buffer diluted [3H]—(S)-6-(2-Methyl-3-(6-(trifluoromethyl)pyridin-3-yl)propyl)-2-thia-6-azaspiro[3.4]octane 2,2-dioxide (Moravek, Cat #MT-1003106) was added at 25 nM×50 μl/well. Following this, the plate was centrifuged at 1000 rpm for 30 secs. The plate was then sealed and agitated at 600 rpm at 22° C. for 5 min, and then incubated at 22° C. for 3 hrs. The incubation was stopped by transferring the binding solution to the pre-treated UniFilter-96 GF/B plate, vacuum filtrated, and then washed four times with ice-cold assay buffer. Following this, the plates were dried at 37° C. for 45 min. The plates were then sealed at the bottom. 40 µl/well of scintillation cocktail was added to the plates. A MicroBeta2 microplate counter was then used to read the plate and analyze the data. For reference and test compounds, the results are expressed as % Inhibition, using the normalization equation: N=100−100×(U−C2)/(C1−C2), where U is the unknown value, C1 is the average of high controls, and C2 is the average value of low controls.

human emopamil binding protein and human 7-dehydrocholesterol reductase (hEBP-DHCR7), sequence (Q15125 whole entry): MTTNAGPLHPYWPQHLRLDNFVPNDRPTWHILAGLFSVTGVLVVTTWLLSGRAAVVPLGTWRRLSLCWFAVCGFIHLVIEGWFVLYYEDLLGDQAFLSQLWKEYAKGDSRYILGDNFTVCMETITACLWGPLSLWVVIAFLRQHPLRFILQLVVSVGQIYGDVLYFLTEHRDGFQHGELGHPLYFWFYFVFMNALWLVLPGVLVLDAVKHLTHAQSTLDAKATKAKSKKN

Row | SMILES | pEC50 [1] | pEC50 [2] | fold decrease in activity in the OPC assay ([2]; as compared to compound 171) [fold] | pKi [3]
1 | CC(C)n1nc(-c2cccc(C(F)(F)F)n2)nc1[C@@H]1CCC(N2CCOCC2)C1 (stereo in doubt) [25*, 4-((1R,3R)-3-(1-isopropyl-3-(6-(trifluoromethyl)pyridin-2-yl)-1H-1,2,4-triazol-5-yl)cyclopentyl)morpholine] | 6.63 | 7.18 | – | –
2 | CC(C)n1nc(-c2cnc(N)c(C(F)(F)F)c2)cc1[C@H]1[C@@H]2C[C@H](N3CCOCC3)C[C@@H]21 [Compound B, reference compound] | – | 6.16 | 41.7 | –
3 | CC(C)n1nc(-c2ccc(C(F)(F)F)nc2)nc1[C@H]1[C@@H]2C[C@H](N3CCCOCC3)C[C@@H]21 [Compound 15, 4-((1R,3r,5S,6r)-6-(1-isopropyl-3-(6-(trifluoromethyl)pyridin-3-yl)-1H-1,2,4-triazol-5-yl)bicyclo[3.1.0]hexan-3-yl)-1,4-oxazepane] | 8.22 | 7.65 | – | –
4 | CC(C)n1nc(-c2cccc(OC(F)(F)F)c2)nc1[C@H]1[C@@H]2C[C@@H](N3CCCOCC3)C[C@@H]21 [Compound 18, 4-((1R,3s,5S,6r)-6-(1-isopropyl-3-(3-(trifluoromethoxy)phenyl)-1H-1,2,4-triazol-5-yl)bicyclo[3.1.0]hexan-3-yl)-1,4-oxazepane] | 7.28 | 7.11 | – | –
5 | CC(C)n1nc(-c2cncc(C(F)(F)F)c2)cc1[C@H]1[C@@H]2C[C@H](N3CCOCC3)C[C@@H]21 [Compound 171, 4-((1R,3r,5S,6r)-6-(1-Isopropyl-3-(5-(trifluoromethyl)pyridin-3-yl)-1H-pyrazol-5-yl)bicyclo[3.1.0]hexan-3-yl)morpholine] | 8.23 | 7.78 | – | –
6 | CC(C)n1nc(-c2cncc(C(F)(F)F)c2)nc1[C@H]1[C@@H]2C[C@@H](N3CCOC[C@H]3C)C[C@@H]21 [Compound 119, (R)-4-((1R,3s,5S,6R)-6-(1-Isopropyl-3-(5-(trifluoromethyl)pyridin-3-yl)-1H-1,2,4-triazol-5-yl)bicyclo[3.1.0]hexan-3-yl)-3-methylmorpholine] | 6.67 | – | – | 6.23
7 | CC(C)n1nc(-c2cnc(F)c(C(F)(F)F)c2)nc1[C@H]1CC[C@H](N2CCOCC2)C1 (single isomer, unassigned) [Compound 159*] | 8.37 | – | – | 7.91
8 | CC(C)n1nc(-c2ccc(C(F)(F)F)nc2)cc1[C@H]1CC[C@@H](N2CCN(CCO)CC2)C1 (single isomer, unassigned) [89*] | 7.66 | – | – | 7.37
9 | CC(C)n1nc(-c2cnc(F)c(C(F)(F)F)c2)nc1[C@H]1CC[C@@H](N2CCOCC2)C1 (single isomer, unassigned) [Compound 158*] | 8.27 | – | – | 7.47
10 | CC[C@@H]1CN([C@@H]2CC[C@H](c3nc(-c4ccc(C(F)F)nc4)nn3C(C)C)C2)CCO1 [Compound 156, (R)-4-((1R,3S)-3-(3-(6-(Difluoromethyl)pyridin-3-yl)-1-isopropyl-1H-1,2,4-triazol-5-yl)cyclopentyl)-2-ethylmorpholine] | 8.39 | – | – | 7.36
11 | CC(C)n1nc(-c2cncc(C(F)(F)F)c2)cc1[C@H]1[C@@H]2CC(N3CCOC[C@@H]3C)C[C@@H]21 (single isomer, unassigned) [43*] | 6.61 | – | – | 7.19
12 | CC(C)n1nc(-c2cncc(Cl)c2)nc1[C@H]1CC[C@H](N2CCOC[C@@H]2C)C1 [Compound 125, (S)-4-((1S,3S)-3-(3-(5-Chloropyridin-3-yl)-1-isopropyl-1H-1,2,4-triazol-5-yl)cyclopentyl)-3-methylmorpholine] | 6.15 | – | – | 6.61
13 | CC(C)n1nc(-c2cnc(C(F)(F)F)nc2)cc1[C@H]1[C@@H]2C[C@@H](N3CCOC[C@H]3C)C[C@@H]21 [Compound 96, (R)-4-((1R,3s,5S,6R)-6-(1-Isopropyl-3-(2-(trifluoromethyl)pyrimidin-5-yl)-1H-pyrazol-5-yl)bicyclo[3.1.0]hexan-3-yl)-3-methylmorpholine] | 6.03 | – | – | 6.20
14 | CC(C)n1nc(-c2cnc(C(F)(F)F)nc2)cc1[C@H]1CC[C@H](N2CCO[C@H](CF)C2)C1 (single isomer, unassigned) [Compound 132*] | 6.45 | – | – | 7.06
15 | CC(C)n1nc(-c2cccc(OC(F)F)c2)nc1[C@H]1[C@@H]2C[C@@H](N3CCOC[C@H]3C)C[C@@H]21 [Compound 77, (R)-4-((1R,3s,5S,6R)-6-(3-(3-(Difluoromethoxy)phenyl)-1-isopropyl-1H-1,2,4-triazol-5-yl)bicyclo[3.1.0]hexan-3-yl)-3-methylmorpholine] | 6.72 | – | – | 6.89
16 | CC(C)n1nc(-c2cccc(OC(F)F)c2)nc1[C@H]1[C@@H]2C[C@H](N3CCCOCC3)C[C@@H]21 [Compound 75, 4-((1R,3r,5S,6r)-6-(3-(3-(Difluoromethoxy)phenyl)-1-isopropyl-1H-1,2,4-triazol-5-yl)bicyclo[3.1.0]hexan-3-yl)-1,4-oxazepane] | 8.55 | – | – | 7.92
17 | CC(C)n1nc(-c2cccc(C(F)(F)F)n2)nc1[C@H]1CC[C@H](N2CCOC[C@H]2C)CC1 (single isomer, unassigned) [80*] | 6.95 | – | – | 6.28
